Laboratory results published in ChEMBL document CHEMBL1136465, “Phenolics with PPAR-gamma ligand-binding activity obtained from licorice (Glycyrrhiza uralensis roots) and ameliorative effects of glycyrin on genetically diabetic KK-A(y) mice” (2003).

How the values were obtained:
Assay type in all cases: functional
[1] = organism: Mus musculus; assay: Body weight of the non-fasted diabetic KK-Ay mice on day 7 was measured
[2] = organism: Mus musculus; assay: Body weight of the non-fasted diabetic KK-Ay mice on day 0 was measured
[3] = organism: Mus musculus; assay: Average sample intake of the diabetic KK-Ay mice was measured as average food intake/average body weight of mice
[4] = organism: Mus musculus; assay: Average food intake of the diabetic KK-Ay mice was measured from total intake amount/days/number of mice
[5] = organism: Mus musculus; assay: Blood glucose level of the diabetic KK-Ay mice on day 0 was measured
[6] = organism: Mus musculus; assay: Blood glucose level of the diabetic KK-Ay mice on day 4 was measured
[7] = organism: Mus musculus; assay: Body weight of the non-fasted diabetic KK-Ay mice on day 4 was measured
[8] = organism: Mus musculus; assay: Body weight of the fasted diabetic KK-Ay mice on day 10 was measured

SMILES	Body weight [1]	Body weight [2]	Average sample intake [3]	Average food intake [4]	Blood glucose [5]	Blood glucose [6]	Body weight [7]	Body weight [8]
COc1cc2oc(=O)c(-c3ccc(O)cc3O)cc2c(OC)c1CC=C(C)C [GLYCYRIN]	51.9 g	54.1 g	102 mg/kg/day	5.34 g mouse-1 day-1	474 mg/dL	278 mg/dL	50.4 g	48.1 g
COc1c(CC=C(C)C)c(O)cc2oc(=O)c3c4ccc(O)cc4oc3c12 [GLYCYROL]	50.3 g	52.6 g	108 mg/kg/day	5.47 g mouse-1 day-1	427 mg/dL	421 mg/dL	49.1 g	46.8 g
CCc1ccc(CCOc2ccc(CC3SC(=O)NC3=O)cc2)nc1 (centres undefined) [PIOGLITAZONE]	55.8 g	55.1 g	23 mg/kg/day	6.34 g mouse-1 day-1	486 mg/dL	191 mg/dL	53.6 g	52.5 g
